Target: T1, NS5B from the BK strain (genotype 1b) (Hepatitis C virus genotype 1b, UniProt P26663)
T1 construct: NS5B from the BK strain (genotype 1b) is expressed in E. coli as a protein in which the 21 C-terminal amino acids are replaced; made in house; host or cells: E. coli
Experiment: Hepatitis C polymerase inhibition, NS5B BK strain, 33P-GTP filter assay
Assay type: biochemical
Conditions: Table 1A; for inhibition at 20 µM: 20 μM compound, read-out: HCV pol % inh at 20 μM; for IC50: NS5B BK strain, read-out: HCV pol BK IC50
From the text: The ability of the compounds of the present invention to inhibit Hepatitis C Polymerase was established by the following experimental procedure: • NS5B from the BK strain (genotype 1b) is expressed in E. coli as a protein in which the 21 C-terminal amino acids are replaced with a short linker and a hexahistidine tag ([…]). The purified protein is mixed with radioactive nucleotides and allowed to replicate a heteropolymeric RNA substrate, primed by an endogenous short hairpin, resulting in an approximately 760 nt product. The radioactive product is captured on a filter and quantitated after removal of the unincorporated nucleotides.
Reagents: • 10 mM uridine 5′-triphosphate (UTP) (Promega # p116B) • 10 mM adenine 5′-triphosphate (ATP) (Promega # p113B) • 10 mM cytidine 5′-triphosphate (CTP) (Promega # p114B) • 10 mM guanine 5′-triphosphate (GTP) (Promega # p115B) • Bovine Serum Albumin (BSA) 10 mg/ml NEB (100× at 10 mg/ml) #007-BSA • RNasein (Promega #N251X) 40 U/μl • A-[33P]-GTP (NEN-easytides NEG/606H 3000 Ci/mmol, 370 MBq/ml, 10 mCi/ml) • Falcon polypropylene 96 well plates (Becton Dickinson # 351190) • Millipore Multiscreen assasy system-96 well-filtration plate #MADE NOB 50 • Optiphase Supermix (Wallac) formulated by Fisher • Millipore Multiscreen liner for use in microbeta 1450-106 casette [(Wallac) Perkin Elmer #1450-433] • 1 M(N-[2-hydroxyethyl]piperazine-N′-[2-ethanesulfonic acid]) (HEPES), pH 7.3 • Amersham Pharmacia Biotec (US16924-500 ml) • 1 M MgCl2 (SIGMA #M1028) • Dithiothreitol (DTT) (solid) (SIGMA #D9779) • RNase free water (GIBCO-BRL #10977-023) • Dimethyl sulfoxide (Aldrich #27685-5) • Basilen Blue (Sigma, B5520) • 0.5M ethylenediaminetetraacetic acid (EDTA), pH 8 (GIBCO-BRL #15575-020) • Dibasic sodium phosphate (7-hydrate) (Na2HPO4.7H2O; Baker#3824-07) • Phosphoric acid (Baker, #0262.02)
Further reagent preparation: • 0.5 M Na Phosphate buffer. Per liter, weigh 134 gr Na2HPO4.7H2O, add water to 900 ml. Adjust pH to 7.0 with phosphoric acid. Top off with water to 1 L. • Dilute nucleotides 1:1000 to 10 μM (GTP and CTP) or 1:100 to 100 μM (ATP and UTP) into RNase free water.
Procedure: • (1) Compounds 10 μl at 10 μg/ml in 15% dimethylsulfoxide (DMSO)
When starting from 100 μg/ml compound stock in […]: • Dispense 5 μl 30% DMSO per well • Dispense 5 μl compound (100 μg/ml) per well.
When starting from 50 μg/ml compound stock in 15% DMSO: • Add 10 μl compound per well. • (2) Enzyme Mix:
Add 20 μl enzyme mix into each well of the assay plate. Incubate compound and enzyme at room temperature for 15 minutes • (3) Template mix—prepare ahead
Spin down a tube of RNA (5 μg/tube stored in 75% ethanol and 0.3 M sodium acetate) in a microcentrifuge for 20 minutes at 4° C. One tube is enough for 1–1.5 plates. Remove as much ethanol from the tube as possible by inverting the tube. Be gentle, pellet RNA may not adhere to the tube. Vacuum dry the RNA. Resuspend the RNA by adding 1 ml of DEPC water, close the cap of the tube tightly. To dissolve RNA, incubate RNA solution on ice for ˜60 minutes and gently vortex. Spin briefly to ensure all RNA solution is down to the bottom of the tube before opening cap. Gently transfer RNA solution into a 5 ml or larger tube. Add another 3 ml of DEPC water (total 4 ml of volume).
Add the following volumes of reagents
Add 20 μl template mix per reaction (i.e. 20 ng of pOF per reaction or ˜3 nM) • (4) Incubate reaction at room temperature (22–25° C.) for 2 hours. • (5) Stop reaction by adding 50 μl of 170 mM EDTA. • Final concentration of EDTA is 85 mM. • (6) Prewet filters of Millipore multiscreen assay plate by adding 200 μl of 0.5 M sodium phosphate buffer, pH 7.0 into each well. Let stand at room temperature for 2–3 minutes. • (7) Place the multiscreen filter plate onto a Millipore Manifold and turn on vacuum to allow buffer to flow through. Turn off vacuum. Transfer 80 μl of the reaction product into each well of the filter plate. Let stand for 2–3 minutes. […]

T1 sequence (P26663 2420-2989): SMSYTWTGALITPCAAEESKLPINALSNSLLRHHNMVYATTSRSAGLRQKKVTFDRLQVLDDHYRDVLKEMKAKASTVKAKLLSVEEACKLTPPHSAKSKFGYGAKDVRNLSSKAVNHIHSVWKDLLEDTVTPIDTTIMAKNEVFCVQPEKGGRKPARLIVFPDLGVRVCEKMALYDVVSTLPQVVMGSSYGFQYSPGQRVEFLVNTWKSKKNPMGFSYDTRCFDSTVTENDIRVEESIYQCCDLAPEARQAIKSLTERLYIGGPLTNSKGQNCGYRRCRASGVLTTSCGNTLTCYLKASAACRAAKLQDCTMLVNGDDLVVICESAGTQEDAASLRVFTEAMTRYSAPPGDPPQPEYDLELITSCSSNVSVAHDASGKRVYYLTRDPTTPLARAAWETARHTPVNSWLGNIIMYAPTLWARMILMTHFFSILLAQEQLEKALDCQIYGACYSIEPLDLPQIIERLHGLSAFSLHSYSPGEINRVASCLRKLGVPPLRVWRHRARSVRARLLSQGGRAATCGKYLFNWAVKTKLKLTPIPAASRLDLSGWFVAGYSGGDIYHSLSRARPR

SMILES	inhibition at 20 µM	IC50
O=C(O)CC1(c2ccccc2F)OCCc2c1[nH]c1c(Cl)ccc(Cl)c21 (centres unmarked) [Example 56, [5,8-dichloro-1-(2-fluorophenyl)-1,3,4,9-tetrahydropyrano[3,4-b]indol-1-yl]acetic acid]	3%	> 20 µM
O=C(O)CC1(c2ccc(C(=O)O)cc2)OCCc2c1[nH]c1c(Cl)ccc(Cl)c21 (centres unmarked) [Example 57, 4-[1-(carboxymethyl)-5,8-dichloro-1,3,4,9-tetrahydropyrano[3,4-b]indol-1-yl]benzoic acid]	56%	3 µM
CCCC1(CC(=O)O)OCCc2c1[nH]c1cccc(C#N)c21 (centres unmarked) [Example 58, (5-cyano-1-propyl-1,3,4,9-tetrahydro-pyrano[3,4-b]indol-1-yl)acetic acid]	78%	6.9 µM
CC(C)C1(CC(=O)O)OCCc2c1[nH]c1cccc(C#N)c21 (centres unmarked) [Example 59, (5-cyano-1-isopropyl-1,3,4,9-tetrahydropyrano[3,4-b]indol-1-yl)acetic acid]	23%	> 20 µM
C/C=C/CCC1(CC(=O)O)OCCc2c1[nH]c1cccc(C#N)c21 (centres unmarked) [Example 60, {5-cyano-1-[(3E)-pent-3-enyl]-1,3,4,9-tetrahydropyrano[3,4-b]indol-1-yl}acetic acid]	15%	> 20 µM
N#Cc1cccc2[nH]c3c(c12)CCOC3(CC(=O)O)c1ccoc1 (centres unmarked) [Example 61, [5-cyano-1-(3-furyl)-1,3,4,9-tetrahydropyrano[3,4-b]indol-1-yl]acetic acid]	18%	> 20 µM
N#Cc1cccc2[nH]c3c(c12)CCOC3(CC(=O)O)c1ccccc1 (centres unmarked) [Example 62, (5-cyano-1-phenyl-1,3,4,9-tetrahydropyrano[3,4-b]indol-1-yl)acetic acid]	32%	> 20 µM
COc1cc(C2(CC(=O)O)OCCc3c2[nH]c2cccc(C#N)c32)cc(OC)c1OC (centres unmarked) [Example 63, [5-cyano-1-(3,4,5-trimethoxyphenyl)-1,3,4,9-tetrahydropyrano[3,4-b]indol-1-yl]acetic acid]	30%	> 20 µM
N#Cc1cccc2[nH]c3c(c12)CCOC3(CC(=O)O)c1ccc([N+](=O)[O-])cc1 (centres unmarked) [Example 64, [5-cyano-1-(4-nitrophenyl)-1,3,4,9-tetrahydropyrano[3,4-b]indol-1-yl]acetic acid]	18%	> 20 µM
N#Cc1cccc2[nH]c3c(c12)CCOC3(CC(=O)O)c1cccc([N+](=O)[O-])c1 (centres unmarked) [Example 65, [5-cyano-1-(3-nitrophenyl)-1,3,4,9-tetrahydropyrano[3,4-b]indol-1-yl]acetic acid]	27%	> 20 µM
N#Cc1cccc2[nH]c3c(c12)CCOC3(CC(=O)O)c1ccccc1F (centres unmarked) [Example 66, [5-cyano-1-(2-fluorophenyl)-1,3,4,9-tetrahydropyrano[3,4-b]indol-1-yl]acetic acid]	28%	> 20 µM
CCCCC1(CC(=O)O)OCCc2c1[nH]c1c(Cl)ccc(Cl)c21 (centres unmarked) [Example 67, (1-butyl-5,8-dichloro-1,3,4,9-tetrahydropyrano[3,4-b]indol-1-yl)acetic acid]	78%	0.76 µM
CCCCC1(CC(=O)O)OCCc2c1[nH]c1cccc(Br)c21 (centres unmarked) [Example 68, (5-bromo-1-butyl-1,3,4,9-tetrahydropyrano[3,4-b]indol-1-yl)acetic acid]	61%	10.3 µM
CCCCC1(CC(=O)O)OCCc2c1[nH]c1cccc(Cl)c21 (centres unmarked) [Example 69, (1-butyl-5-chloro-1,3,4,9-tetrahydropyrano[3,4-b]indol-1-yl)acetic acid]		5.5 µM
COC(=O)CC1(CC(=O)O)OCCc2c1[nH]c1cccc(Cl)c21 (centres unmarked) [Example 70, [5-chloro-1-(2-methoxy-2-oxoethyl)-1,3,4,9-tetrahydropyrano[3,4-b]indol-1-yl]acetic acid]	22%	> 5 µM
O=C(O)CC1(CC(=O)O)OCCc2c1[nH]c1cccc(Cl)c21 [Example 71, [1-(carboxymethyl)-5-chloro-1,3,4,9-tetrahydropyrano[3,4-b]indol-1-yl]acetic acid]	45%	> 5 µM
CC1(CC(=O)O)OCCc2c1[nH]c1c(Cl)cccc21 (centres unmarked) [Example 72, (8-chloro-1-methyl-1,3,4,9-tetrahydropyrano[3,4-b]indol-1-yl)acetic acid]	45%	> 20 µM
CCC1(CC(=O)O)OCCc2c1[nH]c1c(Cl)cccc21 (centres unmarked) [Example 73, (8-chloro-1-ethyl-1,3,4,9-tetrahydropyrano[3,4-b]indol-1-yl)acetic acid]	22%	> 20 µM
CCCC1(CC(=O)O)OCCc2c1[nH]c1c(Cl)cccc21 (centres unmarked) [Example 74, (8-chloro-1-propyl-1,3,4,9-tetrahydropyrano[3,4-b]indol-1-yl)acetic acid]	69%	17.9 µM
CC(C)C1(CC(=O)O)OCCc2c1[nH]c1c(Cl)cccc21 (centres unmarked) [Example 75, (8-chloro-1-isopropyl-1,3,4,9-tetrahydropyrano[3,4-b]indol-1-yl)acetic acid]	17%	> 20 µM
CCCCC1(CC(=O)O)OCCc2c1[nH]c1c(Cl)cccc21 (centres unmarked) [Example 76, (1-butyl-8-chloro-1,3,4,9-tetrahydropyrano[3,4-b]indol-1-yl)acetic acid]	29%	> 20 µM
C/C=C/CCC1(CC(=O)O)OCCc2c1[nH]c1c(Cl)cccc21 (centres unmarked) [Example 77, {8-chloro-1-[(3E)-pent-3-enyl]-1,3,4,9-tetrahydropyrano[3,4-b]indol-1-yl}acetic acid]	16%	> 20 µM
O=C(O)CC1(c2ccccc2)OCCc2c1[nH]c1c(Cl)cccc21 (centres unmarked) [Example 78, (8-chloro-1-phenyl-1,3,4,9-tetrahydropyrano[3,4-b]indol-1-yl)acetic acid]	26%	> 20 µM
O=C(O)CC1(c2ccoc2)OCCc2c1[nH]c1c(Cl)cccc21 (centres unmarked) [Example 79, [8-chloro-1-(3-furyl)-1,3,4,9-tetrahydropyrano[3,4-b]indol-1-yl]acetic acid]	40%	> 20 µM
CC1(CC(=O)O)OCCc2c1[nH]c1c(Br)cccc21 (centres unmarked) [Example 80, (8-bromo-1-methyl-1,3,4,9-tetrahydropyrano[3,4-b]indol-1-yl)acetic acid]	35%	> 20 µM
CCC1(CC(=O)O)OCCc2c1[nH]c1c(Br)cccc21 (centres unmarked) [Example 81, (8-bromo-1-ethyl-1,3,4,9-tetrahydropyrano[3,4-b]indol-1-yl)acetic acid]	27%	> 20 µM
CCCC1(CC(=O)O)OCCc2c1[nH]c1c(Br)cccc21 (centres unmarked) [Example 82, (8-bromo-1-propyl-1,3,4,9-tetrahydropyrano[3,4-b]indol-1-yl)acetic acid]	73%	9.2 µM

Reference: patent US7217730B2, “Method for the use of pyranoindole derivatives to treat infection with Hepatitis C virus” (Wyeth, priority 2002, dated 2007)
